1 molecule from ChEMBL document CHEMBL4261619, “Sentulic acid isolated from Sandoricum koetjape Merr attenuates lipopolysaccharide and interferon gamma co-stimulated nitric oxide production in murine macrophage RAW264 cells” (Bioorg Med Chem Lett, 2018) can be followed below.

Each structure is given as a SMILES string. Active and inactive are the calls of the source. The calls are words filed in the database; no cut-off is given here.

Common to all, as to format: cell-based
Test [1] addresses T1, Toll-like receptor 4 (Mus musculus) (UniProt Q9QUK6).
T1 sequence (whole entry): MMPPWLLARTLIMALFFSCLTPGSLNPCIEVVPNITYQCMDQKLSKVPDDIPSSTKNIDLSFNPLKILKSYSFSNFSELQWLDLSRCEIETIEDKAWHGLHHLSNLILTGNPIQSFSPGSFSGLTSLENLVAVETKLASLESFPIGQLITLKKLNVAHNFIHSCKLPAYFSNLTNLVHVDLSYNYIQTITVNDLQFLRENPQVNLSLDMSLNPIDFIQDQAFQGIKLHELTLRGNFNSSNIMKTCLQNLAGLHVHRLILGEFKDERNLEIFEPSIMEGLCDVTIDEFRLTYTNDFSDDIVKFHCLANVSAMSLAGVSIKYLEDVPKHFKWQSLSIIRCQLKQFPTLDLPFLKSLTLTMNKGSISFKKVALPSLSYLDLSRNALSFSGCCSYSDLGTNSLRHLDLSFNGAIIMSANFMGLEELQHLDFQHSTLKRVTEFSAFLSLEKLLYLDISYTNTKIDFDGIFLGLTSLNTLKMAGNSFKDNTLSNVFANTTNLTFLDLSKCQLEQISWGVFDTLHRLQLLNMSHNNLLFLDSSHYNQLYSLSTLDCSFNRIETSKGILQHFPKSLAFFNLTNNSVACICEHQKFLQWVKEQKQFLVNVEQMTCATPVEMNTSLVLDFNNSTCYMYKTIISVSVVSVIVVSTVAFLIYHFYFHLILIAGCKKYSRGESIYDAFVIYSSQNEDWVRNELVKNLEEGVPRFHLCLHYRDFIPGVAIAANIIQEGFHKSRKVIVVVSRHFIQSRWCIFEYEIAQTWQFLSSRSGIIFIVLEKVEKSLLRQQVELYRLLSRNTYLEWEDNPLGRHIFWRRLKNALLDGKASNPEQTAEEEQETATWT
Put plainly: Inhibition of LPS binding to TLR4 in IFNgamma-stimulated mouse RAW264.7 cells assessed as suppression of COX2 mRNA expression at 100 uM by qRT-PCR analysis. (In general: Quantitative PCR measures a nucleic acid by following its amplification.)

In test [2] the target is T1, Toll-like receptor 4 (Mus musculus). Put plainly: Inhibition of LPS binding to TLR4 in IFNgamma-stimulated mouse RAW264.7 cells assessed as effect on ratio of phosphorylated NFkappaB to total NFkappaB at 100 uM measured after 120 mins by Western blot analysis relative to beta-actin (reference value: 1.2).
For test [3] the target is unchanged. The test is described as follows: Inhibition of LPS binding to TLR4 in IFNgamma-stimulated mouse RAW264.7 cells assessed as effect on ratio of phosphorylated NFkappaB to total NFkappaB at 100 uM measured after 60 mins by Western blot analysis relative to beta-actin (reference value: 1). (Immunoblotting shows a protein as a band on a membrane.)
Test [4] has the same target. Put plainly: Inhibition of LPS binding to TLR4 in IFNgamma-stimulated mouse RAW264.7 cells assessed as suppression of IFNgamma mRNA expression at 100 uM by qRT-PCR analysis.
Test [5] has the same target. The test is described as follows: Inhibition of LPS binding to TLR4 in IFNgamma-stimulated mouse RAW264.7 cells assessed as reduction in iNOS expression at 100 uM by Western blot analysis.
The target is the same in test [6]. Put plainly: Inhibition of LPS binding to TLR4 in IFNgamma-stimulated mouse RAW264.7 cells assessed as effect on ratio of phosphorylated TAK1 to total TAK1 at 100 uM measured after 15 mins by Western blot analysis relative to beta-actin (reference value: 1.3).
Test [7] has the same target. The test is described as follows: Inhibition of LPS binding to TLR4 in IFNgamma-stimulated mouse RAW264.7 cells assessed as effect on ratio of phosphorylated JNK to total JNK at 100 uM measured after 60 mins by Western blot analysis relative to beta-actin (reference value: 1.4).
Test [8] shares this target. The test is described as follows: Inhibition of LPS binding to TLR4 in IFNgamma-stimulated mouse RAW264.7 cells assessed as effect on ratio of phosphorylated AKT to total AKT at 100 uM measured after 60 mins by Western blot analysis relative to beta-actin (reference value: 1.4).
Test [9] shares this target. Put plainly: Inhibition of LPS binding to TLR4 in IFNgamma-stimulated mouse RAW264.7 cells assessed as effect on ratio of phosphorylated JNK to total JNK at 100 uM measured after 120 mins by Western blot analysis relative to beta-actin (reference value: 1).
Test [10] has the same target. The test is described as follows: Inhibition of LPS binding to TLR4 in IFNgamma-stimulated mouse RAW264.7 cells assessed as effect on ratio of phosphorylated p38 to total p38 at 100 uM measured after 60 mins by Western blot analysis relative to beta-actin (reference value: 1.9).
Test [11] has the same target. Put plainly: Inhibition of LPS binding to TLR4 in IFNgamma-stimulated mouse RAW264.7 cells assessed as effect on ratio of phosphorylated p38 to total p38 at 100 uM measured after 15 mins by Western blot analysis relative to beta-actin (reference value: 4.9).
For test [12] the target is unchanged. Put plainly: Inhibition of LPS binding to TLR4 in IFNgamma-stimulated mouse RAW264.7 cells assessed as effect on ratio of phosphorylated AKT to total AKT at 100 uM measured after 30 mins by Western blot analysis relative to beta-actin (reference value: 1.4).
The target is the same in test [13]. Put plainly: Inhibition of LPS binding to TLR4 in IFNgamma-stimulated mouse RAW264.7 cells assessed as effect on ratio of phosphorylated AKT to total AKT at 100 uM measured after 120 mins by Western blot analysis relative to beta-actin (reference value: 1.4).
Test [14] shares this target. The test is described as follows: Inhibition of LPS binding to TLR4 in IFNgamma-stimulated mouse RAW264.7 cells assessed as effect on ratio of phosphorylated ERK to total ERK at 100 uM measured after 120 mins by Western blot analysis relative to beta-actin (reference value: 3).
For test [15] the target is unchanged. The test is described as follows: Inhibition of LPS binding to TLR4 in IFNgamma-stimulated mouse RAW264.7 cells assessed as suppression of IL-12 mRNA expression at 100 uM by qRT-PCR analysis.
Test [16] has the same target. Put plainly: Inhibition of LPS binding to TLR4 in IFNgamma-stimulated mouse RAW264.7 cells assessed as effect on ratio of phosphorylated AKT to total AKT at 100 uM measured after 15 mins by Western blot analysis relative to beta-actin (reference value: 1.2).
Test [17] has the same target. The test is described as follows: Inhibition of LPS binding to TLR4 in IFNgamma-stimulated mouse RAW264.7 cells assessed as reduction in nitric oxide production pretreated for 2 hrs followed by LPS/IFNgamma stimulation and measured after 24 hrs.
Test [18] shares this target. Put plainly: Inhibition of LPS binding to TLR4 in IFNgamma-stimulated mouse RAW264.7 cells assessed as effect on ratio of phosphorylated p38 to total p38 at 100 uM measured after 30 mins by Western blot analysis relative to beta-actin (reference value: 4.8).
In test [19] the test system is RAW264.7. The test is described as follows: Inhibition of IFNgamma binding to IFNGR in LPS-stimulated mouse RAW264.7 cells assessed as effect on ratio of phosphorylated Stat1 to total Stat1 at 100 uM measured after 120 mins by Western blot analysis relative to beta-actin (reference value: 4.1).

On to `C=C(C)[C@@H]1CC[C@]2(C)[C@H](CC=C3[C@@H]4CC(C)(C)CC[C@]4(C)CC[C@]32C(=O)O)[C@@]1(C)CCC(=O)O`, for which the inhibition result in test [1] is “inactive”. Also, the fold change (FC) in [2] was 1; in [3], 1; in test [6], 1; in [7] it was 1.1; in [8], 1; in test [9], 1.1. The fold change (FC) was determined as 2 in test [10]; 4 in test [11]; 1.2 in [12]; 0.9 in [13]; 2.2 in [14]; 1 in test [16]. The fold change (FC) in test [18] was 4; in test [19], 1.6. Besides, the inhibition entry in test [4], in [5] and in test [15] was “Active” in each case. Further, in test [17], the inhibition result was “Dose-dependent effect”.
